Results from patent US12644117B2, “Method of enabling pooled-library based nucleic acid constructs screening” (priority 2019, dated 2026).

Tested on: recombinant ACMNPV baculovirus
Experiment: Baculovirus spreading in Sf9 insect cells infected with YFP-expressing recombinant baculovirus, read by fluorescence microscopy
Type: cell-based, Spodoptera Frugiperda
Experimental: A recombinant ACMNPV baculovirus was generated by homologous recombination and expressed a target fluorescent protein. The fluorescent protein was the Yellow Fluorescent Protein (YFP) from the organism Aequorea Victoria. • Three hours before infection 0.5 million Sf9 insect cells (ThermoFisher) were seeded into two wells of a 6 well-plate (ThermoFisher). Sf9 cells are cultivated in sf900 II media (ThermoFisher). • The initial viral stock titer was estimated to be approximately 1 million baculoviruses per milliliter. The recombinant baculovirus was added to the cells to reach a MOI of approximately 0.02. The added virus volume per well was 10 micolitre. The virus was resuspended in sf900 II media (ThermoFisher). • Cells were incubated in a 27° C. incubator. Four hours after infection, attached cells are washed with PBS to remove baculoviruses which have not penetrated into cells. The wash consisted of three times with 1 ml per cell of PBS media. • Chloroquine diphosphate salt (CC6628 from Sigma) was added to a final concentration of 0.8 mM. In the control condition insect cell media without chloroquine was added to the cells. Cells were incubated in a 27° C. incubator.
Fluorescence microscopy was performed 2 days after infection (FIG. 2A).
In the presence of chloroquine, the proportion of fluorescent cells is constant despite an increase of fluorescence intensity by cell (FIG. 2B), indicating accumulation of expressed YFP protein and virus without increasing the number of infected cells. […] In addition the virus produced high quality protein correctly folded within the individual cells.

[1] = MOI approximately 0.02, chloroquine 0.8 mM, five days after infection (FIG. 2B)

CCN(CC)CCCC(C)Nc1ccnc2cc(Cl)ccc12 (stereo not drawn) [chloroquine, Chloroquine]
proportion of fluorescent cells (MOI approximately 0.02, chloroquine 0.8 mM added four hours after infection, 2 days after infection (FIG. 2A)): around 1% | fluorescence intensity by cell (accumulation of expressed YFP protein) [1]: increase | proportion of fluorescent cells [1]: constant
